The values that follow come from article PMC11214487, “YZL-51N functions as a selective inhibitor of SIRT7 by NAD^+ competition to impede DNA damage repair” (iScience, 2024).

Several values for one entry are separate records, joined by “and”; a condition that tells them apart may be missing. Identical values can stand only once. Like-named read-outs stand apart in the source and are kept apart here.

As usually defined, the Kd is the constant that tells how readily two partners part at equilibrium. Higher therefore signals lower affinity. As usually defined, the IC50 is the concentration at which inhibition is half-maximal. As a reminder, the inhibition is the drop in the measured response relative to a control, in per cent. What is called EC50 is the concentration giving half of the maximal effect.

One experiment deals with EZH2. More on the design: method as in PMID 23023262. As to conditions: EZH2 over EZH1 ref 52; cited from earlier work.
The target in experiment [1] is T1, SIRT7 (Homo sapiens, UniProt Q9NRC8).
T1 construct: His-tagged full length SIRT7 protein expression from BL21 bacterial cells; His; made in house; host or cells: E. coli BL21
T1 sequence (Q9NRC8 1-400): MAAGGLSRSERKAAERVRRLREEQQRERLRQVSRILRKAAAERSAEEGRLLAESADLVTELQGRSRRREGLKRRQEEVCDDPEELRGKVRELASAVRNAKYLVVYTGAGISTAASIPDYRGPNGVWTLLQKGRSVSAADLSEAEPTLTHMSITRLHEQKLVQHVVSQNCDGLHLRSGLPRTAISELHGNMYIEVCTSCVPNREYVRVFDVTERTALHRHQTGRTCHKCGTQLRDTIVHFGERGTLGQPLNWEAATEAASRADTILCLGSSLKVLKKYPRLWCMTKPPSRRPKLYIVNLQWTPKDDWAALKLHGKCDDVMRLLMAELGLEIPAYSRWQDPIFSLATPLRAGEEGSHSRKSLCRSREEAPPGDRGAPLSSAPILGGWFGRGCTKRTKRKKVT
The experiment in a line: Surface plasmon resonance (SPR) binding assay. On the procedure:
All SPR measurements were performed on Biacore T200 instrument (GE Healthcare) with running buffer (PBS+5% DMSO) at room temperature. The bacterially purified His-SIRT7 was covalently immobilized onto Series S Sensor Chip CM5 by a standard amino-coupling procedure in 10 mM sodium acetate (pH 5.5). Two-fold serial dilutions of YZL-51N or NAD^+ in 5% DMSO passed through the sensor chip at 30 μL/min for 120 s, followed by 240 s of dissociation flow. The KD value was calculated based on the concentration dependence of the observed steady-state response using Biacore T200 Evaluation software Version 1.0 (GE Healthcare).

Experiment [2] concerns the target T1, SIRT7. The experiment is described as follows: Fluor de Lys (FDL) SIRT7 deacetylase assay. Format: biochemical. As to conditions: for IC50: 0.5 mM NAD+, read-out: FDL assay SIRT7 inhibition IC50; for inhibition at 50 µM: 50 μM compound, 37°C, 90 min; for Dose-dependent inhibition of SIRT7: FDL assay, Figure S5. From the text: To assess SIRT7 deacetylase activity using Fluor de Lys (FDL) assays, the peptide […]∗QLAGGK was synthesized and characterized as a substrate using fluorophore 7-methoxycoumarin-4-acetic acid (∗, MCA) (Figures 1A, S1A, and S1B). In the presence of both SIRT7 and NAD^+, a luminescence response was detected in the linear range (y = 31.88x + 2396, R^2 = 0.9742) (Figure 1B). We screened our preserved library of 242 natural products to find potential SIRT7 inhibitors.
For in vitro analysis of SIRT7 deacetylation, the reaction system contained 10 μg His-SIRT7, 0.5 mM NAD^+, 10 μM […](MCA)QLAGGK (synthesized by QYAOBIO; details in the supplementary files), 50 μM potential compound or 3 mM NAM, and assay buffer (10 mM Tris-HCl pH 8.0, 4 mM MgCl2, 0.2 mM DTT and 10% Glycerol). The deacetylation reactions were incubated at 37°C for 90 min. The fluorescence intensity was measured with a microplate reader (Synergy H4 Hybrid Reader, Biotek) at an excitation wavelength of 260 nm and detected at an emission spectrum of 300–600 nm. The IC50 values were calculated at 450 nm emission by GraphPad Prism 8.

The target in experiment [3] is T1, SIRT7. The experiment is described as follows: Fluor de Lys (FDL) SIRT7 deacetylase assay. It is filed as biochemical. As to conditions: 2 mM NAM treatment.
The target in experiment [4] is T1, SIRT7. The experiment is described as follows: Dot blot assay of SIRT7-mediated H3K18ac peptide deacetylation. Format: biochemical. As to conditions: for Rescue of H3K18 acetylation: dot blot screening, 50 μM; for EC50: read-out: Dot blot assay H3K18ac rescue EC50. From the text: To avoid the bias of the fluorescence assay, we also performed dot blot assays for the effects of natural compounds on SIRT7-mediated deacetylation of H3K18ac peptides in vitro (Figures S2A and S2B). In this system, SIRT7 mediated a dose-dependent deacetylation of H3K18ac (Figure 1D). […] Based on comparisons of all the candidates, we selected YZL-51N as the best for further investigation (Figure 1F). […] Thus, P. americana derived YZL-51N was confirmed as an identified SIRT7 inhibitor using parallel peptide-based screening platforms.
For dot blot assays, the reaction system containing 10 μg His-SIRT7, 0.5 mM NAD^+, 10 μM biotin-H3K18ac peptides and 50 μM potential compound was mixed and incubated at 37°C for 90 min. Samples were transferred to a polyvinylidene difluoride (PVDF) membrane, and then blocked with 5% skimmed milk. The blots were probed with H3K18ac primary antibody at RT for 2 h and then incubated with secondary antibody at RT for 1h. The bands were visualized using ECL substrates (Thermo Fisher, USA) on Tanon 5200SF Imaging System.

Description for HCT116 cells: Cells were seeded into 96 well plates (4,000 cells/well). […] The cells were then washed and re-cultured in fresh medium for 48 h. […] Formazan were generated by the addition of 100 μL DMSO and shaking for 30 min. The absorbance of samples was measured at 570 nm using a microtiter plate reader (BioTek).

With `Cc1cc(C)c(CNC(=O)c2cc(-c3ccc(CN4CCOCC4)cc3)cc3c2cnn3C2CCCC2)c(=O)[nH]1` [EPZ005687], the “Selectivity against EZH1” value in the experiment on EZH2 is on record as 50 fold.

In the case of `NC(=O)c1ccc[n+]([C@@H]2O[C@H](COP(=O)([O-])OP(=O)(O)OC[C@H]3O[C@@H](n4cnc5c(N)ncnc54)[C@H](O)[C@@H]3O)[C@@H](O)[C@H]2O)c1` [NAD^+], the “Weaker affinity to SIRT7 than YZL-51N” value on SIRT7 [1] came out at 200 fold. This compound also had a Kd at SIRT7 [1] (immobilized His-SIRT7) greater than 200 µM.

For the compound `NC(=O)c1cccnc1` [NAM, nicotinamide, reference compound], at SIRT7 [2] (0-30 mM NAM), the IC50 was 2290 µM and ~2290 µM. The inhibition at 2000 µM against SIRT7 [3] came to 44.4%.

For the compound `COc1ccc(C(C)=O)cc1OC` [compound 1], on SIRT7 [2], the inhibition at 50 µM worked out at 47.5% and the “Dose-dependent inhibition of SIRT7” value is “did not show a dose-dependent inhibition”.

Take `COC(=O)/C(=C\C(=O)c1ccc(OC)c(OC)c1)c1ccc(OC)c(OC)c1` [compound 6]: on SIRT7 [2], the inhibition at 50 µM worked out at 12.3%. At SIRT7 [4], the “Rescue of H3K18 acetylation” value is on record as “rescued H3K18 acetylation” and the EC50 was found to be 70.2 µM.

Take `O=C(O)/C(=C\C(=O)c1ccc(O)c(O)c1)c1ccc(O)c(O)c1` [compound 7]: on SIRT7 [2], the inhibition at 50 µM was 52.7% and the “Dose-dependent inhibition of SIRT7” value was “did not show a dose-dependent inhibition”. In addition, the IC50 at SIRT7 [2] (10 μM peptide) was greater than 30 µM. Also, at SIRT7 [4], the “Rescue of H3K18 acetylation” value is “rescued H3K18 acetylation” and the EC50 was 32 µM.

With `COc1cc([C@@H]2c3cc4c(cc3[C@@H](O[C@@H]3O[C@@H]5CO[C@@H](C)O[C@H]5[C@H](O)[C@H]3O)[C@H]3COC(=O)[C@H]23)OCO4)cc(OC)c1O` [etoposide, reference compound], the “Cell proliferation (%, Mean ± SD)” value with HCT116 cells (single agent 5 μM) worked out at 92.7 ± 4.1%; with HCT116 cells (single agent 10 μM) it was 82.5 ± 6.0%; in the experiment on HCT116 cells (single agent 20 μM), 73.5 ± 6.0%; in the experiment with HCT116 cells (single agent 40 μM) it was 48.5 ± 2.4%; in the experiment on HCT116 cells (single agent 80 μM) it was 27.0 ± 1.9%.
